Our source for the IC50 values is US11780845B2 (Relay Therapeutics, Inc., priority 2019, dated 2023).

Each structure is given as a SMILES string. Bounds are passed on as bounds.

Broadly, the IC50 is the concentration that gives 50% inhibition. Low values mean greater potency, high ones weaker potency.

T1 sequence (P21802 22-821): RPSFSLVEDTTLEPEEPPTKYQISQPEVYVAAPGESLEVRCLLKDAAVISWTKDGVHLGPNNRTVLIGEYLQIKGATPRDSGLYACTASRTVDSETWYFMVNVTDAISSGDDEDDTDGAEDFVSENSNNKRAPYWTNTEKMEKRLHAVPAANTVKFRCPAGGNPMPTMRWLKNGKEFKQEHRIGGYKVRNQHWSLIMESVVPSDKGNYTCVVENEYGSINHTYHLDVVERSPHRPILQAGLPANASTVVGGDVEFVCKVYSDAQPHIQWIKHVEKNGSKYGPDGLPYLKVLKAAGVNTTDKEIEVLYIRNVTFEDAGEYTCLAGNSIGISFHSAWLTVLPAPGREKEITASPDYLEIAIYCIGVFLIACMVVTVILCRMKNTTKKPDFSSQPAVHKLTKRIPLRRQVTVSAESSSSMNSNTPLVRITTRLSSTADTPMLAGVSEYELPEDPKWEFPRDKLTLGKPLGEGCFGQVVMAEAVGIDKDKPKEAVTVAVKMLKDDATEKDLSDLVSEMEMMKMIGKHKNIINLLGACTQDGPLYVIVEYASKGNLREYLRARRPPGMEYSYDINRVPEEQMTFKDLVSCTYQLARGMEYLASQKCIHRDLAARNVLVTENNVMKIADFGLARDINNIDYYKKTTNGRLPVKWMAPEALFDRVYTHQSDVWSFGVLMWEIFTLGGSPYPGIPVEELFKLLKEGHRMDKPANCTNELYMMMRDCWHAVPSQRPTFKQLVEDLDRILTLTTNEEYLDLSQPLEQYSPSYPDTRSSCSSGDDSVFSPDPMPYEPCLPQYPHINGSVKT

One test deals with T1, FGFR2 (Homo sapiens (Human), UniProt P21802). The test can be described thus: FGFR2 Biochemical Caliper Assay. As for the experimental part:
Compounds of the present invention were also tested in a FGFR2 Biochemical Caliper Assay. Compounds were prepared in 10 mM DMSO solution and serially diluted into 11 concentrations by 3-fold dilution. […] 5 uL of ATP solution (100 uM) was added to start the reaction and the plate was incubated for 90 minutes, then 70 uL of stopping buffer (0.5M EDTA) was added to terminate the reaction. Each well was analyzed using EZ reader.
Take `C=C(C)C(=O)Nc1ccc(-c2c(-c3ccc(C(=O)N4CCCC4)cc3)c3c(N)ncnc3n2C)c(CN2CCOCC2)c1` [Example 486]: the half-inhibitory concentration (IC50) is 1 to 100 µM.

As for `C=C(C)C(=O)Nc1ccc(-c2c(-c3ccn(Cc4cccc(C)n4)c(=O)c3)c3c(N)ncnc3n2C)cc1` [Example 488], the IC50 lay in the range of 1 to 100 µM.

`C=C(C)C(=O)Nc1ccc(-c2c(-c3ccc(C(=O)N(C)CC4COC4)cc3)c3c(N)ncnc3n2C)c(F)c1` [Example 489] had an IC50 of 0.25 to 1 µM.

The molecule `C=C(C)C(=O)Nc1ccc(-c2c(-c3ccc(Oc4nccc(C)n4)c(OCC)c3)c3c(N)ncnc3n2C)cc1` [Example 491] registered an IC50 of 1 to 100 µM.

Turning to `Cn1c(-c2ccc(C#N)nc2)c(-c2ccc(C(=O)N3CCCC3)cc2)c2c(N)ncnc21` [Example 493], the IC50 was in the range of 1 to 100 µM.

`C=C(C)C(=O)Nc1ccc(-c2c(-c3ccc(Oc4nccc(C)n4)c(COC)c3)c3c(N)ncnc3n2C)cc1` [Example 501]: the IC50 is 1 to 100 µM.

The molecule `C=C(C)C(=O)Nc1ccc(-c2c(-c3ccc(Oc4nccc(C)n4)c(N(C)C)c3)c3c(N)ncnc3n2C)cc1` [Example 504] returned an IC50 of 1 to 100 µM.

Take `C=C(C)C(=O)Nc1ccc(-c2c(-c3ccc(C(=O)N4CCCC4)cc3)c3c(N)ncnc3n2C)c(CC)c1` [Example 516]: the IC50 was less than 0.1 µM.

Turning to `C=C(C)C(=O)Nc1ccc(-c2c(-c3ccc(C(=O)N4CCCC4)cc3)c3c(N)ncnc3n2C)c(CC)c1` [Example 517], the concentration for half-maximal inhibition (IC50) was in the range of 0.25 to 1 µM.

`C=C(C)C(=O)Nc1ccc(-c2c(-c3ccc(C(=O)N4CCCC4)cc3)c3c(N)ncnc3n2C)c(C2CC2)c1` [Example 518] gave an IC50 of less than 0.1 µM.

On to `C=C(C)C(=O)Nc1ccc(-c2c(-c3ccc(Oc4nccc(C)n4)c(F)c3)c3c(N)ncnc3n2C)c(C(=O)N(C)C)c1` [Example 519], for which the IC50 was 1 to 100 µM.

For the molecule `Cn1c(-c2ccc(NC(=O)C3=CCCC3)cc2)c(-c2ccc(C(=O)N3CCCC3)cc2)c2c(N)ncnc21` [Example 523], the 50% inhibitory concentration (IC50) was in the range of 1 to 100 µM.

In turn, `Cn1c(-c2ccc(NC(=O)C=C3CCC3)cc2)c(-c2ccc(C(=O)N3CCCC3)cc2)c2c(N)ncnc21` [Example 525] came in with an IC50 of 1 to 100 µM.

Molecule `C=C(C)C(=O)Nc1ccc(-c2c(-c3ccc(Oc4nccc(C)n4)c(F)c3)c3c(N)ncnc3n2C2CCOC2)cc1` (stereo not shown) [Example 536] came in with an IC50 of less than 0.1 µM.

The molecule `Cn1c(-c2ccc(N3CCC=CC3=O)cc2)c(-c2ccc(C(=O)N3CCCC3)cc2)c2c(N)ncnc21` [Example 540] gave an IC50 of 1 to 100 µM.

Molecule `Cn1c(-c2ccc(NC(=O)CC3=CCCC3)cc2)c(-c2ccc(C(=O)N3CCCC3)cc2)c2c(N)ncnc21` [Example 542] showed an IC50 of 1 to 100 µM.

With `Cn1c(-c2ccc(N3CCC=CS3(=O)=O)cc2)c(-c2ccc(C(=O)N3CCCC3)cc2)c2c(N)ncnc21` [Example 544], the concentration for half-maximal inhibition (IC50) was in the range of 1 to 100 µM.

As for `Cn1c(-c2ccc(NC(=O)C=C3CCCC3)cc2)c(-c2ccc(C(=O)N3CCCC3)cc2)c2c(N)ncnc21` [Example 545], the IC50 lay in the range of 1 to 100 µM.

Turning to `C=C(C)C(=O)Nc1ccc(-c2c(-c3ccc(C(=O)N4CC5CC4(CO)C5)cc3)c3c(N)ncnc3n2C)cc1` [Example 547], the IC50 lay within 0.25 to 1 µM.

Molecule `C=C(C)C(=O)Nc1ccc(-c2c(-c3ccc(C(=O)N4CC5CC4(C)C5)cc3)c3c(N)ncnc3n2C)cc1` [Example 548] registered an IC50 of less than 0.1 µM.

On to `C=C(C)C(=O)Nc1ccc(-c2c(C3=CCC(Oc4ccn(C)n4)CC3)c3c(N)ncnc3n2C)cc1` (stereo not shown) [Example 551], for which the IC50 fell in the range of 0.25 to 1 µM.

With `C/C(=C\CN(C)C)C(=O)Nc1ccc(-c2c(-c3ccc(C(=O)N4CCCC4)cc3)c3c(N)ncnc3n2C)cc1` [Example 553], the IC50 fell in the range of 0.25 to 1 µM.

In the case of `C=C(C)C(=O)Nc1ccc(-c2c(-c3ccc(Oc4nccc(C)n4)c(F)c3)c3c(N)ncnc3n2C)c(CN(C)C)c1` [Example 555], the IC50 is less than 0.1 µM.

`Cn1c(-c2ccc(N3CC=CS3(=O)=O)cc2)c(-c2ccc(C(=O)N3CCCC3)cc2)c2c(N)ncnc21` [Example 556]: the IC50 is 0.25 to 1 µM.

`Cn1c(-c2ccc(N3CC=CC3=O)cc2)c(-c2ccc(C(=O)N3CCCC3)cc2)c2c(N)ncnc21` [Example 557] had an IC50 of 1 to 100 µM.

Turning to `CC(Cl)C(=O)Nc1ccc(-c2c(-c3ccc(C(=O)N4CCCC4)cc3)c3c(N)ncnc3n2C)cc1` (stereo not shown) [Example 561], the IC50 lay in the range of 0.25 to 1 µM.

In the case of `C=C(C)C(=O)Nc1ccc(-c2c([C@H]3CC[C@@H](C(=O)N4CCCC4)CC3)c3c(N)ncnc3n2C)cc1` [Example 577], the IC50 lay in the range of 1 to 100 µM.

The molecule `C=C(C)C(=O)Nc1ccc(-c2c([C@H]3CC[C@H](C(=O)N4CCCC4)CC3)c3c(N)ncnc3n2C)cc1` [Example 578] gave an IC50 of 1 to 100 µM.

Molecule `C=C(C)C(=O)Nc1ccc(-c2c(C3=CC[C@H](C(=O)N4CC5CC5C4)CC3)c3c(N)ncnc3n2C)cc1` (stereo partly shown) [Example 581] yielded an IC50 of 1 to 100 µM.

With `Cn1c(-c2ccc(NC(=O)C3CO3)cc2)c(-c2ccc(C(=O)N3CCCC3)cc2)c2c(N)ncnc21` (stereo not shown) [Example 586], the IC50 was in the range of 0.1 to 0.25 µM.

In turn, `C=C(C)C(=O)Nc1ccc(-c2c(-c3ccc(C(=O)N4CCCC4)cc3Cl)c3c(N)ncnc3n2C)cc1` [Example 587] showed an IC50 of 1 to 100 µM.

`C=C(C)C(=O)Nc1ccc(-c2c(-c3ccc(C(=O)N4CCCC4)cc3C(F)F)c3c(N)ncnc3n2C)cc1` [Example 588] returned an IC50 of 1 to 100 µM.

On to `C=C(C)C(=O)Nc1ccc(-c2c(-c3ccc(C(=O)N4CC5CC4(C(F)F)C5)cc3)c3c(N)ncnc3n2C)cc1` [Example 595], for which the IC50 was less than 0.1 µM.

For the molecule `C=C(C)C(=O)Nc1ccc(-c2c(-c3ccc(C(=O)N4CCCC4)cn3)c3c(N)ncnc3n2C)cc1` [Example 596], the IC50 was less than 0.1 µM.

In turn, `C=C(C)C(=O)Nc1ccc(-c2c(-c3ccc(C(=O)N4CCCC4)cc3C)c3c(N)ncnc3n2C)cc1` [Example 597] registered an IC50 of 1 to 100 µM.

In the case of `C=C(C)C(=O)Nc1ccc(-c2c(-c3ccc4c(c3)COC4c3cccc(C)n3)c3c(N)ncnc3n2C)cc1` (stereo not shown) [Example 599], the IC50 lay in the range of 0.1 to 0.25 µM.

On to `C=CC(=O)N1CC(c2c(-c3ccc(Oc4ccccc4)cc3)c3c(N)ncnc3n2C)C1` [Example 604], for which the IC50 is less than 0.1 µM.

For the molecule `C=CC(=O)N[C@H]1C[C@H](n2cc(-c3c(-c4ccc(Oc5ccccc5)cc4)c4c(N)ncnc4n3C)cn2)C1` [Example 605], the IC50 was less than 0.1 µM.

`C=CC(=O)N[C@H]1C[C@@H](n2cc(-c3c(-c4ccc(Oc5ccccc5)cc4)c4c(N)ncnc4n3C)cn2)C1` [Example 606] yielded an IC50 of less than 0.1 µM.

For `C=CC(=O)N1CCC(n2cc(-c3c(-c4ccc(Cl)c(OC)c4)c4c(N)ncnc4n3C)cn2)CC1` [Example 609], the IC50 is 0.25 to 1 µM.

On to `C=CC(=O)N1CCC(n2cc(-c3c(-c4ccc(F)c(OC)c4)c4c(N)ncnc4n3C)cn2)CC1` [Example 610], for which the IC50 lay within 0.25 to 1 µM.

Take `C=CC(=O)N1CCC(n2cc(-c3c(-c4ccccc4OC)c4c(N)ncnc4n3C)cn2)CC1` [Example 611]: the 50% inhibitory concentration (IC50) fell in the range of 1 to 100 µM.

Molecule `C=CC(=O)N1CCC(n2cc(-c3c(-c4ccc(Oc5ccccc5)c(OC)c4)c4c(N)ncnc4n3C)cn2)CC1` [Example 612] had an IC50 of 0.1 to 0.25 µM.

In the case of `C=CC(=O)N1CCC(n2cc(-c3c(-c4cc(OC)c(Cl)cc4Cl)c4c(N)ncnc4n3C)cn2)CC1` [Example 613], the IC50 is 1 to 100 µM.

With `C=CC(=O)N1CCC(n2cc(-c3c(-c4cc(OC)c(Cl)cc4F)c4c(N)ncnc4n3C)cn2)CC1` [Example 614], the IC50 was in the range of 1 to 100 µM.

As to `C=CC(=O)N1CCC(n2cc(-c3c(-c4ccc(Oc5ccccc5)cc4Cl)c4c(N)ncnc4n3C)cn2)CC1` [Example 615], the IC50 was less than 0.1 µM.

Molecule `C=CC(=O)N1CCC(n2cc(-c3c(-c4c(Cl)ccc5c4OCO5)c4c(N)ncnc4n3C)cn2)CC1` [Example 616] registered an IC50 of 1 to 100 µM.

Consider `C=CC(=O)N[C@H]1CC[C@@H](c2c(-c3ccc(Oc4cccc(C)n4)c(OC)c3)c3c(N)ncnc3n2C)CC1` [Example 624], for which the IC50 is 1 to 100 µM.

As to `C=CC(=O)N[C@H]1CC[C@H](c2c(-c3ccc(Oc4cccc(C)n4)c(OC)c3)c3c(N)ncnc3n2C)CC1` [Example 625], the IC50 fell in the range of 0.25 to 1 µM.

Take `C=CC(=O)N1CCC(N2CC(c3c(-c4ccc(Oc5cccc(C)n5)c(OC)c4)c4c(N)ncnc4n3C)C2)CC1` [Example 658]: the concentration for half-maximal inhibition (IC50) was in the range of 1 to 100 µM.

As for `C=CC(=O)N1CCC(N2CC(c3c(-c4ccc(Oc5cccc(C)n5)cc4)c4c(N)ncnc4n3C)C2)CC1` [Example 659], the IC50 was 1 to 100 µM.

With `C=CC(=O)N1CCC(c2c(-c3ccc(Oc4cccc(C)n4)c(OC)c3)c3c(N)ncnc3n2C)=CC1C` (stereo not shown) [Example 679], the half-maximal inhibitory concentration (IC50) was less than 0.1 µM.

The next test concerns the target T1, FGFR2. The test can be described thus: Biochemical FGFR2 Caliper assay.
With `C=CC(=O)Nc1ccc(-c2c(C3=CC[C@H](C(=O)N4CCCC4)CC3)c3c(N)ncnc3n2C)c(C)c1` (single isomer, unassigned) [Example 1101], the IC50 was less than 0.1 µM.

With `C=CC(=O)Nc1ccc(-c2c(-c3ccc(Oc4nccc(C)n4)c(C)c3)c3c(N)ncnc3n2C)c(F)c1` [Example 1075], the IC50 is less than 0.1 µM.

As for `C=C(C)C(=O)Nc1cc(Cl)c(-c2c(-c3ccc(Oc4nccc(C)n4)cc3)c3c(N)ncnc3n2C)cc1F` [Example 1076], the IC50 was less than 0.1 µM.

On to `CN(C)C/C=C/C(=O)Nc1cccc(-c2c(-c3ccc(C(=O)N4CCCC4)cc3)c3c(N)ncnc3n2C)c1` [Example 1099], for which the IC50 is less than 0.1 µM.

`C#Cc1ncc(-c2c(-c3ccc(Oc4nccc(C)n4)cc3)c3c(C)ncnc3n2C)c(C)n1` [Example 1100] registered an IC50 of 0.1 to 0.25 µM.

The molecule `C=C(C)C(=O)Nc1ccc(-c2c(-c3ccc4nn(C)cc4c3)c3c(N)ncnc3n2C)cc1` [Example 1122] returned an IC50 of less than 0.1 µM.

`C#Cc1cc(C)c(-c2c(-c3ccc(OC(F)(F)F)cc3)c3c(N)ncnc3n2C)cn1` [Example 1129]: the half-inhibitory concentration (IC50) was less than 0.1 µM.

Molecule `C=C(C)C(=O)Nc1cnc(-c2c(-c3ccc(Oc4cccc(C)n4)c(F)c3)c3c(C)ncnc3n2C)c(C)c1` [Example 1139] had a concentration for half-maximal inhibition (IC50) of less than 0.1 µM.

For `C=C(C)C(=O)Nc1ccc(-c2c(-c3ccc(-n4ccc(C)n4)nc3)c3c(N)ncnc3n2C)cc1` [Example 1146], the half-inhibitory concentration (IC50) lay within 0.25 to 1 µM.
